Data on two compounds can be found in patent US9801943B2, “Method for in vivo targeting of nanoparticles via bioorthogonal copper-free click chemistry” (KOREA INSTITUTE OF SCIENCE AND TECHNOLOGY, priority 2012, dated 2017).

One experiment deals with A549 cells. The experiment is described as follows: Generation of azide groups on A549 cells (Coomassie staining, western blot with phosphine-FLAG). The format is cell-based, human. The conditions noted are these: Ac4ManNAz 0.5, 5, 50 μM, 3 days. As for the experimental part:
A549 cells in 10 mL of media with no sugar or different concentrations of Ac4ManNAz (final concentrations of 0.5 μM, 5 μM and 50 μM) were seeded onto 100×20 mm polystyrene tissue culture plates at a density of 1.5×10^6 cells per plate and incubated for 3 days. The cells were washed twice with PBS (pH 7.4) and harvested from the plates with a cell scraper. The cells were pelletized by centrifuging at 3,000×g for 5 minutes and the supernatant was discarded. The cell pellets were resuspended in 500 μL of lysis buffer (1% SDS, 100 mM Tris.HCl, pH 7.4) containing protease inhibitor (Complete, EDTA-free) and lysed at 4° C. using a probe-type sonicator. The sonicated lysates were incubated at 4° C. for 30 minutes to further solubilize proteins. Insoluble debris was removed by centrifuging at 3,000×g for 10 minutes. Total soluble protein concentration was determined by the bicinchroninic acid (BCA) protein assay (Pierce, Ill., USA) to be 5 mg/mL. 20 μL of the lysate (5 mg/mL protein) was incubated with 2 μL of phosphine-FLAG (5 mM in PBS, pH 7.4) (Sigma, St. Louis, Mo., USA) at 37° C. for 6 hours. SDS-PAGE loading buffer was added to each sample. Then, aliquots were loaded onto 10% SDS-PAGE after heating at 95° C. […]
Background: A western blot detects proteins with antibodies after separation by electrophoresis.

Experiment [1] relates to A549 tumors. The experiment is described as follows: Generation of azide groups in tumor tissues (western blot, immunohistochemical staining). The format is in vivo, mice. The conditions noted are these: Ac4ManNAz 0.5, 5, 50 mM intratumoral once daily for 3 days; tumors dissected on day 4. How it is done:
Preparation of tumor-bearing mouse models and administration of Ac4ManNAz were performed according to the same method as described above. 24 hours after the injection of Ac4ManNAz (on day 4), the tumors were dissected, transferred into 1 mL of lysis buffer (1% SDS, 100 mM Tris.HCl, pH 7.4) containing protease inhibitor (Complete, EDTA-free), and homogenized using a homogenizer (WiseMix HG-15D, Daihan Scientific, Seoul, Korea). The lysate was incubated at 4° C. for 30 minutes and insoluble debris was removed by centrifuging at 3,000×g for 10 minutes. Protein concentration was measured using the BCA protein assay kit. Staudinger reaction with phosphine-FLAG, SDS-PAGE and western blot analysis were conducted as described above.
The dissected tumor tissues were retrieved and fixed in a 4% (v/v) buffered formalin solution, dehydrated with graded ethanol series, and embedded in paraffin. The paraffin tissues were sliced into 4-μm wide slices and immunohistochemical staining was performed using Histostain®-Plus Brod Spectrum (Invitrogen, CA, USA) in combination with phosphine-FLAG and monoclonal anti-FLAG-HRP antibodies according to the manufacturer's instructions. The paraffin slices were dehydrated, mounted using the Permount SP15-100 Toluene Solution (Fisher Scientific, NJ, USA) mounting medium, and observed with an optical microscope (BX51, Olympus, Tokyo, Japan). […]

Experiment [2] deals with A549 tumors. Kind of experiment: In vivo and ex vivo NIRF imaging of tumor targeting in A549 tumor-bearing mice. The conditions noted are these: i.v., same fluorescence intensity as DBCO-lipo. As for the experimental part: All experiments using live animals were performed in compliance with the relevant laws and the institutional guidelines of the Korea Institute of Science and Technology (KIST) and under the approval by the institutional committee. For in vivo and ex vivo experiments, 1.0×10^7 A549 tumor cells were administered to 5-week-old male athymic nude mice (20 g, Institute of Medical Science, Tokyo, Japan) on both flanks by subcutaneous injection. […] DBCO-lipo (10 mg/kg), DBCO-free control liposome (10 mg/kg) or DBCO-fluorescent dye conjugate of the same fluorescence intensity as DBCO-lipo were injected into the tail veins of two A549 tumor-bearing mice. […] Near-infrared (NIR) fluorescence emission at 700 nm was collected and detected with a fast photomultiplier tube (Hamamatsu, Japan) and a time-correlated single photon counting system (Becker and Hickl GmbH, Berlin, Germany). The active tumor targeting characteristics of DBCO-lipo were evaluated by capturing 20 z-section images at 1.0 mm spacing using the Analysis Workstation software (ART Advanced Research Technologies Inc., Montreal, Canada). […] NIR fluorescence images were obtained using a 12-bit CCD (Kodak Image Station 4000 MM, New Haven, Conn., USA) equipped with a Cy5.5 emission filter (600-700 nm; Omega Optical). […] All numerical values were expressed as mean±standard deviation for the three animal groups. […]

For `CC(=O)OC[C@H]1OC(OC(C)=O)[C@@H](NC(=O)CN=[N+]=[N-])[C@@H](OC(C)=O)[C@@H]1OC(C)=O` (stereo partly drawn) [Ac4ManNAz, Tetraacetylated N-azidoacetyl-D-mannosamine], the “generation of azide groups on cell surface” value in the experiment on A549 cells is given as “modified azide groups could be generated on the surface of the A549 cells”. Also, the “amount of azide groups in tumor tissues” value in the experiment with A549 tumors [1] is reported as “increased in a dose-dependent manner”.
On to dibenzylcyclooctyne-SETA650 [DBCO-SETA], for which the “NIRF image brightness in mice” value in the experiment on A549 tumors [2] was “relatively dim images”.
